From patent publication US12496297B1, “Compositions of autophagy modulating agents and uses thereof” (Washington University, priority 2020, dated 2025)

What was measured:
[1] = test system: C. elegans model of ATD (sGFP::ATZ); assay: Quantification of ATZ accumulation in C. elegans model of ATD (Z worm); assay type: in vivo; conditions: GB administered to ATD C. elegans model
Protocol: The C. elegans strain VK1882 (vkls1882 [nhx-2p::sGFP::ATZ; myo-2p::mCherry) was routinely cultured at 20° C. on nematode growth medium plates seeded with E. coli strain OP50. Quantitative analysis of ATZ accumulation was carried out by detection of fluorescence using the Thermofisher CellInsight CX-7 high content imager as previously described. L4 stage animals were placed into wells of 384-well plates (30 per well) containing G2 analogs or an equivalent volume of DMSO. Following incubation at 20° C. for 24 hours, sodium azide was added to a final concentration of […] to anesthetize the animals and then each well was imaged on the CX-7 high content imager for quantification.

misfolded ATZ = assay: Autophagic degradation of ATZ in mammalian cell line model of ATD; assay type: cell-based; conditions: effect blocked when autophagy gene ATG14 was deleted

COc1ccc(Cl)cc1C(=O)NCCc1ccc(S(=O)(=O)NC(=O)NC2CCCCC2)cc1 [GB, 5-chloro-N-(4-(N-(cyclohexylcarbamoyl)sulfamoyl)phenethyl)-2-methoxybenzamide, reference compound]
accumulation of misfolded, aggregated ATZ [1]: reduced accumulation of misfolded, aggregated ATZ | autophagic degradation of misfolded ATZ (misfolded ATZ): enhances the autophagic degradation of misfolded ATZ
